The values below come from patent publication US20050065041A1, “GELLED ACID” (SCHLUMBERGER TECHNOLOGY CORPORATION, priority 2003, published 2005).

Molecules are shown by their SMILES. ≈ marks a conversion by molar mass, not a printed value. Read-outs that look alike come from different tables or passages of the source.

Data set [1] relates to Acartia tonsa. Description: OSPAR/HOCNF aquatic toxicity test, Acartia tonsa. It counts as in vivo. From the text: (§1) The bioaccumulation testing was done according to Organization of Economic Co-operation and Development, Paris, (OECD) Method 117. The biodegradation tests were done according to OECD 306. The toxicity tests were done according to the protocol required for application in the North Sea as recommended by OSPAR (the Oslo Paris Commission) for completion of HOCNF (Harmonized Offshore Chemical Notification Format) requirements. The methods are those in effect as of August, 2003, and the MSDS data and public health, safety and environment data given below are as of August, 2003.
(§2) However, in addition to the excellent toxicity results shown in Table 2, in further OSPAR tests, 2-butanoneoxime had NOEC (No Observable Effect Concentration) values of 8.9 mg/L for Acartia tonsa (48 hours), 1000 mg/L for Scophthalamus maximus juvenile (96 hours), and 99.7 mg/L for Skeletonema Costatum (72 hours), and the 15 day BOD was 6.5%.

A short description of data set [2]: OSPAR/HOCNF aquatic toxicity test, Acartia tonsa. It counts as in vivo. Particulars: Acartia tonsa, in vivo; 48 hr; read-out: Acartia tonsa LC 50 48 hr.
Excerpt: as §1, §2

The subject of data set [3] is Skeletonema Costatum. Description: OSPAR/HOCNF aquatic toxicity test, Skeletonema Costatum. It counts as in vivo.
Excerpt: as §1, §2

Data set [4] deals with Scophthalamus maximus juvenile. Description: OSPAR/HOCNF aquatic toxicity test, Scophthalamus maximus juvenile. It counts as in vivo.
Excerpt: as §1, §2

Data set [5] in a line: Bioaccumulation (Log Pow), OECD Method 117. It counts as physicochemical. Particulars: component in aqueous composition of Table 2.
Excerpt: as §1

The nature of data set [6]: Diversion test in limestone cores. Particulars: 65.5° C., SDA fluid 5% HCl. The protocol:
Diversion: Tests were completed with one-inch diameter and 4 inch length cores of Indiana Limestone. The initial permeability of each was determined with 3% NaCl brine in both the production and treatment directions prior to treatment with the gelled acid fluid. Then the gelled fluid was pumped at a constant pressure of about […] in the treatment direction. The time for acid break-through was also recorded. All tests were completed at 65.5° C. and constant pressure. Three cores were used to test for diversion in each case; two cores were about 18 to about 24 md and 1 core was about 45 to about 60 md. The initial and final permeabilities were determined. After the tests, all cores were CT scanned, cross sectional view, to visualize the wormholing.

Data set [7] in a line: Iron reduction as a function of HCl spending. Particulars: reagent 2.00%. The method, then: Iron Reduction Performance: All solutions were prepared as indicated using about 0.5% by volume of a concentrate having about 40 weight percent FeCl3, and analyses were done with a HACH 2000 calorimeter, obtained from Hach Company, Loveland, Colo. Standard analyses were as described in the “Water Analyses Handbook,” Hach Company. Total iron was obtained by the FerroZine procedure by form ation of a purple complex observable at 562 nm. The ferrous iron content was determined by the phenanthroline complex procedure determined at 510 nm. An orange complex is formed which is proportional to the iron content. For each analysis, samples of the test solution were taken and diluted 1:100 with water and the appropriate, premeasured reagent pillows were added to the solution. Measurements were determined calorimetrically employing standards for the analyses. For ferrous content, analyses were made quickly to prevent oxidation due to air. Total iron required 5 minutes reaction time. If ferric content was needed, the content was obtained by difference.
The selected iron reducing agent should […] reduce the ferric iron in acid solutions. […] For each of these tests 2.0% of an approximately 10 to 12% aqueous solution or reducing agent or reducing agent precursor was evaluated. This represents approximately twice the concentration to adequately reduce the quantity of Fe^+3 present.

The nature of data set [8]: Iron reduction performance: effect of pH and reagent concentration.
For data set [9] the following is noted: MSDS and public data as of August, 2003; cited from earlier work.
For data set [10] the following is noted: OECD 306B, seawater; cited from earlier work.
The conditions of data set [11]: HPLC Method OECD 117; cited from earlier work.
The nature of data set [12]: Biodegradation (BOD), OECD 306. Particulars: 28 day.
Excerpt: as §1

For data set [13], the system named is Abra alba. Description: OSPAR/HOCNF toxicity test, Abra alba. It counts as in vivo. Particulars: printed in the column headed Scophthalamus maximus juvenile EC 50 96 hr.
Excerpt: as §1

Data set [14] can be described thus: Acid spending tests with residue analysis at 121° C. Particulars: 6.89 MPa, six hours.
Description: Acid spending tests were designed and implemented to analyze for residue for spending tests completed at 121° C. These tests were done with amounts chosen such that not all the limestone could be dissolved. […] Reducing agents and reducing agent precursors were evaluated and compared with hydrazinium hydrochloride. Indiana Limestone was crushed and approximately 25 grams of the limestone chips were placed in ajar that would fit a small autoclave. The gelled acid (2.25-ml of gelled acid solution per gram of chips) was added to the limestone chips, stirred to mix well, placed in the autoclave, pressurized to 6.89 mPa, heated to 121° C. and maintained for six hours. At the conclusion of the test, the autoclave was cooled and depressurized. The jar and contents were removed for examination and analysis.
The spent gelled acid was poured through a strainer to observe the fluid and to determine whether the gel was broken. The chips were also rinsed with deionized water to remove gel and residue from the chips, which were examined and then dried and the final weight determined. All residues were rinsed from the jar and chips, combined, and filtered through a pre-weighed Whatman 541 filter paper. The filter paper was dried to a stable weight to obtain the residue weight.
Where [15] appears, read: Core 2 (highest permeability core).
The mark [16] stands for this setting: Test 2: 90% Spent 15% HCl + 0.50% FeCl3.
[17] abbreviates: Test 3: 95% Spent 15% HCl + 0.50% FeCl3.
Setting [18] is: Test 4: 99% Spent 15% HCl + 0.50% FeCl3.
Setting [19] is: Test 5: 99.5% Spent 15% HCl + 0.50% FeCl3.
Setting [20] is: Test 1: DI water + 0.50% FeCl3 (pH 2.03), reagent concentration 0.50%.
Setting [21] is: Test 1: DI water + 0.50% FeCl3 (pH 2.03), reagent concentration 1.00%.
Setting [22] is: Test 1: DI water + 0.50% FeCl3 (pH 2.03), reagent concentration 1.25%.
[23] abbreviates: Test 2: 15% HCl + 0.50% of a 40% FeCl3 Aqueous Solution, reagent concentration 0.50%.
Where [24] appears, read: Test 2: 15% HCl + 0.50% of a 40% FeCl3 Aqueous Solution, reagent concentration 1.00%.
The mark [25] stands for this setting: Test 2: 15% HCl + 0.50% of a 40% FeCl3 Aqueous Solution, reagent concentration 1.25%.
The mark [26] stands for this setting: Test 2: 15% HCl + 0.50% of a 40% FeCl3 Aqueous Solution, reagent concentration […].
Setting [27] is: Test 3: 50% water/CaCl2 + 10% 15% HCl + 0.50% FeCl3, reagent concentration 0.50%.
The mark [28] stands for this setting: Test 3: 50% water/CaCl2 + 10% 15% HCl + 0.50% FeCl3, reagent concentration 1.00%.
Where [29] appears, read: Test 3: 50% water/CaCl2 + 10% 15% HCl + 0.50% FeCl3, reagent concentration 1.25%.
The mark [30] stands for this setting: Test 1: DI water + 0.50% FeCl3 (pH 2.03), reagent concentration 1.50%.
Setting [31] is: Test 1: DI water + 0.50% FeCl3 (pH 2.03), reagent concentration 2.00%.
[32] abbreviates: Test 2: 15% HCl + 0.50% of a 40% FeCl3 Aqueous Solution, reagent concentration 1.50%.
The mark [33] stands for this setting: Test 2: 15% HCl + 0.50% of a 40% FeCl3 Aqueous Solution, reagent concentration 2.00%.
[34] abbreviates: Test 3: 50% water/CaCl2 + 10% 15% HCl + 0.50% FeCl3, reagent concentration 1.50%.
Setting [35] is: Test 3: 50% water/CaCl2 + 10% 15% HCl + 0.50% FeCl3, reagent concentration 2.00%.

What is called chromatographic logP is a lipophilicity value derived from retention on a column. Take `CCC(C)=NO` [2-Butanone oxime]: in [1] (48 hours), the “NOEC (No Observable Effect Concentration) Acartia tonsa” value amounted to 8.9 mg/L. Also, in [2], the LC50 at 48 h was found to be 6930 µg/mL (≈ 79.6 mM). Moreover, the “NOEC (No Observable Effect Concentration) Skeletonema Costatum” value in data set [3] (72 hours) turned out to be 99.7 mg/L. For the same molecule, the EC50 in data set [3] (Skeletonema costatum, 72 h, read-out: Skeletonema Costatum EC50 72 hr) is 470 µg/mL (≈ 5.39 mM); in [4] (96 h, read-out: Scophthalamus maximus juvenile EC 50 96 hr), greater than 3000 µg/mL. In addition, the “NOEC (No Observable Effect Concentration) Scophthalamus maximus juvenile” value in [4] (96 hours) came out at 1000 mg/L. The molecule also showed a chromatographic logP in [5] (octanol/water) of 1.38. The “Final Permeability” value in [6] (Core 1) is on record as 34.1 md; in data set [6] (setting [15]), greater than 5000 md; in [6] (Core 3) it was 49.6 md.
`NNC(=O)NN` [Carbohydrazide]: the “Iron % reduced” value is 1.8% in [7] (Test 1: 15% HCl + 0.50% FeCl3); 8.0% in data set [7] (setting [16]); 1.6% in [7] (setting [17]); 20.0% in [7] (setting [18]); 12.3% in [7] (setting [19]); 27.3% in data set [8] (setting [20]). For the same molecule, the Iron % reduced was determined as 38.5% in [8] (setting [21]); 46.9% in [8] (setting [22]); 0.8% in data set [8] (setting [23]); 12.2% in [8] (setting [24]); 29.8% in [8] (setting [25]); 0.8% in data set [8] (setting [26]). The Iron % reduced in [8] (setting [27]) was 13%; in [8] (setting [28]), 15%; in data set [8] (setting [29]), 15%. In addition, the “Iron Content Fe+2” value stood at 20 mg/L in data set [7] (Test 1: 15% HCl + 0.50% FeCl3); 90 mg/L in data set [7] (setting [16]); 20 mg/L in [7] (setting [17]); 160 mg/L in [7] (setting [18]); 90 mg/L in data set [7] (setting [19]); 390 mg/L in [8] (setting [20]). In addition, the “Iron Content Fe+2” value in data set [8] (setting [21]) is 550 mg/L; in [8] (setting [22]), 670 mg/L; in data set [8] (setting [23]), 10 mg/L; in [8] (setting [24]) it was 160 mg/L; in data set [8] (setting [25]) it was 390 mg/L; in [8] (setting [26]), 10 mg/L. The “Iron Content Fe+2” value was 160 mg/L in data set [8] (setting [27]), 190 mg/L in data set [8] (setting [28]) and 190 mg/L in data set [8] (setting [29]). Besides, the EC50 in data set [3] (Skeletonema costatum, 72 h; read-out: Skeletonema Costatum EC50 72 hr) came to 56.7 µg/mL (≈ 0.629 mM). Moreover, the hazard rating entry in data set [9] was “harmful and an irritant”.
Regarding `CCN(O)CC` [Diethylhydroxylamine, Diethylhydroxyl amine], the “Iron % reduced” value is 54.4% in data set [7] (Test 1: 15% HCl + 0.50% FeCl3); 66.4% in data set [7] (setting [16]); 74.4% in [7] (setting [17]); 88.8% in [7] (setting [18]); 89.0% in [7] (setting [19]); 65.7% in data set [8] (setting [20]). In addition, the Iron % reduced stood at 73.5% in data set [8] (setting [21]); 75.5% in data set [8] (setting [22]); 84.3% in data set [8] (setting [30]); 89.2% in [8] (setting [31]); 34.3% in [8] (setting [23]); 48.0% in data set [8] (setting [24]). The Iron % reduced in data set [8] (setting [32]) was 52.9%; in data set [8] (setting [33]), 83.3%; in [8] (setting [27]), 25%; in data set [8] (setting [28]), 42%; in data set [8] (setting [34]) it was 47%; in data set [8] (setting [35]) it was 61%. The “Iron Content Fe+2” value in data set [7] (Test 1: 15% HCl + 0.50% FeCl3) was determined as 620 mg/L; in data set [7] (setting [16]) it was 750 mg/L; in data set [7] (setting [17]), 930 mg/L; in data set [7] (setting [18]), 710 mg/L; in [7] (setting [19]), 650 mg/L; in data set [8] (setting [20]), 670 mg/L. Further, the “Iron Content Fe+2” value in [8] (setting [21]) is on record as 750 mg/L; in data set [8] (setting [22]), 770 mg/L; in data set [8] (setting [30]) it was 860 mg/L; in [8] (setting [31]), 910 mg/L; in [8] (setting [23]), 350 mg/L; in [8] (setting [24]), 490 mg/L. Besides, the “Iron Content Fe+2” value in [8] (setting [32]) was 540 mg/L; in data set [8] (setting [33]), 850 mg/L; in data set [8] (setting [27]) it was 310 mg/L; in data set [8] (setting [28]) it was 520 mg/L; in data set [8] (setting [34]), 590 mg/L; in data set [8] (setting [35]), 760 mg/L. Moreover, the biodegradation result in [10] was “less than 60%”. In data set [11], the “bioaccumulation (Log Pow), literature value” is reported as 0.43. Further, the hazard rating entry in data set [9] was “harmful and an irritant”.
Turning to `NN` [Hydrazine], in data set [9], the hazard rating result is on record as “toxic to aquatic species”.
Regarding `Cl.NN` [Hydrazinium hydrochloride], in [12], the “Biodegradability BOD28 day” value was found to be 84%. Further, the Abra alba toxicity in data set [13] came out at 96 mg/L. The “Acartia tonsa LC 50 48 hr” value in [1] (48 hr) came to 0.37 µg/mL. For the same molecule, in data set [3] (24 hr), the “Skeletonema Costatum EC50 24 hr” value came out at 0.38 µg/mL. The “Residue Remaining” value in data set [14] worked out at 0.278 g. Moreover, the hazard rating result in data set [9] was “toxic by all routes”. Also, the “Bioaccumulation Log Pow” value in [5] is less than 0. Besides, the “Final Permeability” value in data set [6] (Core 1) was 14.1 md; in data set [6] (setting [15]), greater than 5000 md; in [6] (Core 3) it was 6.8 md.
